Earlier results as cited in patent publication US20050175694A1, “Long acting compositions comprising zidovudine and lamivudine” (priority 2002, published 2005).

Conditions: in vivo

| Structure (SMILES) | serum half-life | oral bioavailability |
| --- | --- | --- |
| Cc1cn([C@H]2C[C@H](N=[N+]=[N-])[C@@H](CO)O2)c(=O)[nH]c1=O [zidovudine] | 1.1 h | 60% |
| Nc1ccn([C@@H]2CS[C@H](CO)O2)c(=O)n1 [lamivudine] | – | 86% |
